Measured values as given in the NIST ThermoML archive (doi:10.1016/j.fluid.2018.07.018).
Numbers after ± are expanded uncertainties.

Settings: Crystal; DTA

**Q.** For `CC(C)OC(=O)C(C)(C)Oc1ccc(C(=O)c2ccc(Cl)cc2)cc1` [fenofibrate], which Normal melting temperature is on record?
**A.** 82.00 ± 1.1 °C
